This test in a line: HCV replicon assay (luciferase reporter, ET cell line). The class given is cell-based. The settings on record: Hepatitis C virus, HCV replicon luciferase activity in ET cells. The gist of the method:
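ET cells carry a stable luciferase-ubiquitin-neo/NS3-5B subgenomic HCV replicon with adaptive mutations. Compounds (0.1 nM to […], 0.5% DMSO) were added 24 h after plating, and luciferase was read 48-72 h later. EC50 came from 10-point 2-fold dilutions fitted to a Hill equation; TC50 was measured in parallel by WST-1.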
(In antiviral work, replicon cells carry a viral genome segment that copies itself.)

One may read the inhibition as the change of the read-out against control, counted positive when it falls. `Cn1cc(-c2cc(C(F)(F)F)c3nc(C(=O)NCc4cccs4)c(Cl)n3c2)cn1` [Compound 280, 3-Chloro-6-(1-methyl-1H-pyrazol-4-yl)-8-trifluoromethyl-imidazo[1,2-a]pyridine-2-carboxylic Acid (thiophen-2-ylmethyl)-amide] came in with an inhibition at 10 µM of 83.9%.

As to `CC(C)(C)OC(=O)n1cccc1-c1cc(C(F)(F)F)c2nc(C(=O)NCc3cccs3)c(Cl)n2c1` [Compound 281, 2-{3-Chloro-2-[(thiophen-2-ylmethyl)-carbamoyl]-8-trifluoromethyl-imidazo[1,2-a]pyridin-6-yl}-pyrrole-1-carboxylic Acid Tert-butyl Ester], 10 µM produced 69.3% inhibition.

`O=C(NCc1cccs1)c1nc2c(C(F)(F)F)cc(C3=CCCCC3)cn2c1Cl` [Compound 282, 3-Chloro-6-cyclohex-1-enyl-8-trifluoromethyl-imidazo[1,2-a]pyridine-2-carboxylic acid (thiophen-2-ylmethyl)-amide] yielded an inhibition at 10 µM of 97.6%.

For `O=C(NCc1cccs1)c1nc2c(C(F)(F)F)cc(-c3ccn[nH]3)cn2c1Cl` [Compound 283, 3-Chloro-6-(2H-pyrazol-3-yl)-8-trifluoromethyl-imidazo[1,2-a]pyridine-2-carboxylic Acid(thiophen-2-ylmethyl)-amide], at 10 µM the inhibition was 87.5%.

On to `O=C(NCc1cccs1)c1nc2c(C(F)(F)F)cc(C3=CCCCO3)cn2c1Cl` [Compound 284, 3-Chloro-6-(5,6-dihydro-4H-pyran-2-yl)-8-trifluoromethyl-imidazo[1,2-a]pyridine-2-carboxylic Acid (thiophen-2-ylmethyl)-amide], for which the inhibition at 10 µM turned out to be 98.8%.

In turn, `O=C(NCc1cccs1)c1nc2c(C(F)(F)F)cc(-c3cnn(Cc4ccccc4)c3)cn2c1Cl` [Compound 285, 6-(1-Benzyl-1H-pyrazol-4-yl)-3-chloro-8-trifluoromethyl-imidazo[1,2-a]pyridine-2-carboxylic Acid (thiophen-2-ylmethyl)-amide] showed an inhibition at 10 µM of 71.8%.

`CN(C)c1cccc(-c2cc(C(F)(F)F)c3nc(C(=O)NCc4cccs4)c(Cl)n3c2)c1` [Compound 286, 3-Chloro-6-(3-dimethylamino-phenyl)-8-trifluoromethyl-imidazo[1,2-a]pyridine-2-carboxylic Acid (thiophen-2-ylmethyl)-amide] returned an inhibition at 10 µM of 57.9%.

For the compound `O=C(NCc1cccs1)c1nc2c(C(F)(F)F)cc(/C=C/c3ccccc3)cn2c1Cl` [Compound 287, 3-Chloro-6-styryl-8-trifluoromethyl-imidazo[1,2-a]pyridine-2-carboxylic Acid (thiophen-2-ylmethyl)-amide], the inhibition at 10 µM was 52.3%.

With `O=C(NCc1cccs1)c1nc2c(C(F)(F)F)cc(-c3cnoc3)cn2c1Cl` [Compound 288, 3-Chloro-6-isoxazol-4-yl-8-trifluoromethyl-imidazo[1,2-a]pyridine-2-carboxylic Acid(thiophen-2-ylmethyl)-amide], testing at 10 µM gave an inhibition of 85%.

Consider `Cc1nc(C)c(-c2cc(C(F)(F)F)c3nc(C(=O)NCc4cccs4)c(Cl)n3c2)s1` [Compound 289, 3-Chloro-6-(2,4-dimethyl-thiazol-5-yl)-8-trifluoromethyl-imidazo[1,2-a]pyridine-2-carboxylic Acid (thiophen-2-ylmethyl)-amide], for which the inhibition at 10 µM came to 30.3%.

Compound `O=C(NCc1cccs1)c1nc2c(C(F)(F)F)cc(-c3cn[nH]c3)cn2c1Cl` [Compound 290, 3-Chloro-6-(1H-pyrazol-4-yl)-8-trifluoromethyl-imidazo[1,2-a]pyridine-2-carboxylic Acid(thiophen-2-ylmethyl)-amide] came in with an inhibition at 10 µM of 93.9%.

Turning to `O=C(NCc1cccs1)c1nc2c(C(F)(F)F)cc(-c3ccc[nH]3)cn2c1Cl` [Compound 293, 3-Chloro-6-(1H-pyrrol-2-yl)-8-trifluoromethyl-imidazo[1,2-a]pyridine-2-carboxylic Acid(thiophen-2-ylmethyl)-amide], the inhibition at 10 µM amounted to 87.2%.

`O=C(NCc1cccs1)c1nc2c(C(F)(F)F)cc(C#Cc3ccccc3)cn2c1Cl` [Compound 294, 3-Chloro-6-phenylethynyl-8-trifluoromethyl-imidazo[1,2-a]pyridine-2-carboxylic Acid(thiophen-2-ylmethyl)-amide]: the inhibition at 10 µM was 41.5%.

Compound `C#Cc1cc(C(F)(F)F)c2nc(C(=O)NCc3cccs3)c(Cl)n2c1` [Compound 297, 3-Chloro-6-ethynyl-8-trifluoromethyl-imidazo[1,2-a]pyridine-2-carboxylic Acid (thiophen-2-ylmethyl)-amide] showed an inhibition at 10 µM of 29.3%.

In the case of `O=C(NCc1cccs1)c1nc2c(C(F)(F)F)cc(-c3cccc(F)c3)cn2c1I` [Compound 299, 6-(3-Fluoro-phenyl)-3-iodo-8-trifluoromethyl-imidazo[1,2-a]pyridine-2-carboxylic Acid(thiophen-2-ylmethyl)-amide], the inhibition at 10 µM was found to be 97.6%.

For the compound `C/C=C\c1c(C(=O)NCc2cccs2)nc2c(C(F)(F)F)cc(-c3cccc(F)c3)cn12` [Compound 300, 6-(3-Fluoro-phenyl)-3-propenyl-8-trifluoromethyl-imidazo[1,2-a]pyridine-2-carboxylic Acid(thiophen-2-ylmethyl)-amide], at 10 µM the inhibition was 76.9%.

As for `O=C(NCc1cccs1)c1nc2c(C(F)(F)F)cc(-c3cccc(F)c3)cn2c1-c1cn[nH]c1` [Compound 301, 6-(3-Fluoro-phenyl)-3-(1H-pyrazol-4-yl)-8-trifluoromethyl-imidazo[1,2-a]pyridine-2-carboxylic Acid (thiophen-2-ylmethyl)-amide], testing at 10 µM gave an inhibition of 79.9%.

Consider `C=C(C)c1c(C(=O)NCc2cccs2)nc2c(C(F)(F)F)cc(-c3cccc(F)c3)cn12` [Compound 302, 6-(3-Fluoro-phenyl)-3-isopropenyl-8-trifluoromethyl-imidazo[1,2-a]pyridine-2-carboxylic Acid (thiophen-2-ylmethyl)-amide], for which the inhibition at 10 µM was found to be 69.5%.

`O=C(NCc1cccs1)c1nc2c(C(F)(F)F)cc(-c3cccc(F)c3)cn2c1C1=CCCCC1` [Compound 303, 3-Cyclohex-1-enyl-6-(3-fluoro-phenyl)-8-trifluoromethyl-imidazo[1,2-a]pyridine-2-carboxylic Acid (thiophen-2-ylmethyl)-amide] returned an inhibition at 10 µM of 39.7%.

`O=C(NCc1cccs1)c1nc2c(C(F)(F)F)cc(-c3cccc(F)c3)cn2c1C#Cc1cccnc1` [Compound 305, 6-(3-Fluoro-phenyl)-3-pyridin-3-ylethynyl-8-trifluoromethyl-imidazo[1,2-a]pyridine-2-carboxylic Acid (thiophen-2-ylmethyl)-amide] gave an inhibition at 10 µM of 59.5%.

In turn, `O=C(NCc1cccs1)c1nc2c(C(F)(F)F)cc(-c3cccc(F)c3)cn2c1C#CCCO` [Compound 306, 6-(3-Fluoro-phenyl)-3-(4-hydroxy-but-1-ynyl)-8-trifluoromethyl-imidazo[1,2-a]pyridine-2-carboxylic Acid (thiophen-2-ylmethyl)-amide] showed an inhibition at 10 µM of 62.5%.

Turning to `CC(C)(C)C#Cc1c(C(=O)NCc2cccs2)nc2c(C(F)(F)F)cc(-c3cccc(F)c3)cn12` [Compound 307, 3-(3,3-Dimethyl-but-1-ynyl)-6-(3-fluoro-phenyl)-8-trifluoromethyl-imidazo[1,2-a]pyridine-2-carboxylic Acid (thiophen-2-ylmethyl)-amide], the inhibition at 10 µM turned out to be 33.5%.

`O=C(NCc1cccs1)c1nc2c(C(F)(F)F)cc(-c3cn[nH]n3)cn2c1Cl` [Compound 308, 3-Chloro-6-(2H-[1,2,3]triazol-4-yl)-8-trifluoromethyl-imidazo[1,2-a]pyridine-2-carboxylic Acid (thiophen-2-ylmethyl)-amide]: the inhibition at 10 µM was found to be 88.2%.

The compound `N#Cc1cc(C(F)(F)F)c2nc(C(=O)NCc3cccs3)c(Cl)n2c1` [Compound 309, 3-Chloro-6-cyano-8-trifluoromethyl-imidazo[1,2-a]pyridine-2-carboxylic Acid (thiophen-2-ylmethyl)-amide] displayed an inhibition at 10 µM of 1.8%.

In the case of `O=C(NCc1cccs1)c1nc2c(C(F)(F)F)cc(-c3ncon3)cn2c1Cl` [Compound 311, 3-Chloro-6-[1,2,4]oxadiazol-3-yl-8-trifluoromethyl-imidazo[1,2-a]pyridine-2-carboxylic Acid (thiophen-2-ylmethyl)-amide], the inhibition at 10 µM is 83.2%.

`COC(=O)c1cc(C(F)(F)F)c2nc(C(=O)NCc3cccs3)c(Cl)n2c1` [Compound 312, 3-Chloro-2-[(thiophen-2-ylmethyl)-carbamoyl]-8-trifluoromethyl-imidazo[1,2-a]pyridine-6-carboxylic Acid Methyl Ester] registered an inhibition at 10 µM of 76.2%.

On to `O=C(NCc1cccs1)c1cn2cc(-c3cccc(F)c3)cc(C(F)(F)F)c2n1` [Compound 314, 6-(3-Fluoro-phenyl)-8-trifluoromethyl-imidazo[1,2-a]pyridine-2-carboxylic Acid (thiophen-2-ylmethyl)-amide], for which 10 µM produced 49.6% inhibition.

As to `O=C(c1nc2c(C(F)(F)F)cc(-c3ccco3)cn2c1Cl)N1CCC(c2ccc(F)cc2)C1` (stereo not drawn) [Compound 316, (3-Chloro-6-furan-2-yl-8-trifluoromethyl-imidazo[1,2-a]pyridin-2-yl)-[3-(4-fluoro-phenyl)-pyrrolidin-1-yl]-methanone], the inhibition at 10 µM is 89.2%.

For the compound `O=C(c1nc2c(C(F)(F)F)cc(-c3ccco3)cn2c1Cl)N1CCC(O)(c2ccccc2)C1` (stereo not drawn) [Compound 317, (3-Chloro-6-furan-2-yl-8-trifluoromethyl-imidazo[1,2-a]pyridin-2-yl)-(3-hydroxy-3-phenyl-pyrrolidin-1-yl)-methanone], 10 µM produced 94.6% inhibition.

In turn, `CN1CCN(C(=O)c2nc3c(C(F)(F)F)cc(-c4ccco4)cn3c2Cl)CC1c1ccccc1` (stereo not drawn) [Compound 318, (3-Chloro-6-furan-2-yl-8-trifluoromethyl-imidazo[1,2-a]pyridin-2-yl)-(4-methyl-3-phenyl-piperazin-1-yl)-methanone] returned an inhibition at 10 µM of 62.4%.

The values are drawn from patent publication US20120121540A1 (priority 2007, published 2012).
